The results in this text go back to US12559529B2, “NPY2 receptor agonists” (Boehringer Ingelheim International GmbH, priority 2019, dated 2026).

*1 amine or outer side, *2 acyl side, *3 side chain or, on linkers, in order; H or OH if unused. Where a SMILES comes first, the peptide text is derived from it. Side-chain parts run from the residue outwards. The star is where a group is joined. C18 diacid = O=C(O)CCCCCCCCCCCCCCCCC(=O)*; γGlu = O=C(O)[C@H](CCC(=O)[*:2])N[*:1]; Isovaleryl = CC(C)CC(=O)*; AEEA = NCCOCCOCC(=O)O

Assay [1] addresses T1, Human Neuropeptide Y2 Receptor (Homo sapiens, UniProt P49146).
T1 construct: purchased CHEMICON HTS066M
T1 sequence (P49146 1-381): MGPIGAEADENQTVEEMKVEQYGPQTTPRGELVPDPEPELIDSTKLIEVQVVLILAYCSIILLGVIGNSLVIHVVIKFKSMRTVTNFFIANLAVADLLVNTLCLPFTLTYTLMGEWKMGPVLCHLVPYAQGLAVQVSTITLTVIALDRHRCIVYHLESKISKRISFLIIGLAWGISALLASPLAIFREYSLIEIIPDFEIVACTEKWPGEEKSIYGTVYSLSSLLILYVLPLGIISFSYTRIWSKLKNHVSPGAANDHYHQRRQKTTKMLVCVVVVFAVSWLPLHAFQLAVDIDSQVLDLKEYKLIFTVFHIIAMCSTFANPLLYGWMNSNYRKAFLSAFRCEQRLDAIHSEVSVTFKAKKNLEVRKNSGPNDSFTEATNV
The experiment in a line: Activity (RLB) after incubation in solutions at different pH values. The assay is classed as binding. To be noted: apparent Ki of filtrate after 2 h in buffer. The method, then:
The filtration RLB assay was carried out in 96-well plates in a final volume of 100 μl per well. Freeze-dried test peptides were dissolved in 100% dimethyl sulfoxide (DMSO) to stock solutions of 1 mM and serial dilutions were performed in assay buffer (50 mM HEPES, 5 mM MgCl2, 1 mM CaCl2), pH 7.4) containing 0.2% ovalbumin. […] Next, 80 μL membranes (HTS066M, ChemiSCREEN™ Human Neuropeptide Y2 Receptor Membrane Preparation, CHEMICON) were added to each well to give a final protein concentration of 0.5 μg/well. The plates were sealed and incubated at room temperature for 2 hours in a plate shaker set at 400 rpm. The incubation was stopped by vacuum filtration onto 0.5% poly-ethylene amine (PEI) presoaked GF/C filters using a 96-well FilterMate™ harvester (Perkin Elmer) followed by four washes with 300 μl/well ice-cold wash buffer (50 mM HEPES, 500 mM NaCl, pH7.4). Filter plates were then dried for 60 min at room temperature and the bottom of the plates was sealed with backing tape UniFilter-96. Finally, 50 μl/well scintillation counter cocktail (Microscint20, Packard) was added and the radioactivity was counted in the Packard TopCount NXT scintillation counter. IC50 values (the half maximal inhibitory concentration of the agonist) were calculated by nonlinear regression analysis of sigmoidal dose-response curves.
Peptides (as TFA salts) were weighed out in a filter unit (Mini-UniPrep Syringeless Filter 0.45 μm, Whatman), and 0.1 M sodium diphosphate buffer at pH 6.4 or 7.4, respectively, or 0.2 M TRIS buffer at pH 8.3 was added to achieve 10 mg/ml final concentration. The peptide was (partially) dissolved by shaking the filter unit horizontally at approx. 400 rpm for 2 hours at room temperature. The sample was filtered to remove any insoluble particles.

The target of assay [2] is T1, Human Neuropeptide Y2 Receptor. Nature of the assay: Radioligand binding competition assay (RLB). The procedure, abridged:
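Membranes (0.5 μg/well) and test peptides, serially diluted from 1 mM DMSO stocks, were incubated 2 hours at room temperature in HEPES buffer pH 7.4 with Mg, Ca and ovalbumin.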

The next assay has as its system normal NMRI mice. The experiment in a line: Effect on acute food intake in normal NMRI mice. The class given is in vivo. To be noted: male NMRI mice, 10 nmol/kg subcutaneously once. In short, it runs like this:
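A single 10 nmol/kg s.c. peptide dose was given 1 h before lights-off to male NMRI mice fasted from 6 h before the night phase (n=7-8). Intake was recorded continuously by microchip-identified HM-2 feeding channels. Values are normalized to vehicle controls (50 mM phosphate buffer pH7 with 5% Mannitol).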

[3] abbreviates: pH6.1-6.2, assumed 10 mg/ml, read-out: RLB 6 (pH6.1-6.2).
The mark [4] stands for this setting: Table 3, human 125I-PYY (1-36) 0.02 nM, Y2 receptor membranes, read-out: Ki.
The mark [5] stands for this setting: Table 8, from DMSO stock, read-out: hY2R RLB Ki (nM) DMSO.

`CC(C)CC(=O)N[C@@H](C)C(=O)N1CCC[C@H]1C(=O)N[C@@H](CCC(=O)O)C(=O)N[C@@H](CCCCNC(=O)COCCOCCNC(=O)COCCOCCNC(=O)CC[C@H](NC(=O)CCCCCCCCCCCCCCCCC(=O)O)C(=O)O)C(=O)N1CCC[C@H]1C(=O)N[C@@H](CCC(=O)O)C(=O)N[C@@H](C)C(=O)N1CCC[C@H]1C(=O)N[C@@H](C)C(=O)N[C@@H](CO)C(=O)N1CCC[C@H]1C(=O)N[C@@H](CCC(=O)O)C(=O)N[C@@H](CCC(=O)O)C(=O)N[C@@H](CC(C)C)C(=O)N[C@@H](CCC(N)=O)C(=O)N[C@@H](CCCNC(=N)N)C(=O)N[C@@H](Cc1ccc(O)cc1)C(=O)N[C@@H](Cc1ccc(O)cc1)C(=O)N[C@H](C(=O)N[C@@H](CCC(=O)O)C(=O)N[C@@H](CC(C)C)C(=O)N[C@@H](CCCNC(=N)N)C(=O)N[C@@H](Cc1c[nH]cn1)C(=O)N[C@@H](Cc1ccc(O)cc1)C(=O)N[C@@H](Cc1ccc(O)cc1)C(=O)N[C@@H](CC(N)=O)C(=O)N[C@@H](Cc1c[nH]c2ccccc12)C(=O)N[C@@H](CC(C)C)C(=O)N[C@H](C(=O)N[C@@H](CCCNC(=N)N)C(=O)N[C@@H](CCC(N)=O)C(=O)N[C@@H](CCCNC(=N)N)C(=O)N[C@@H](Cc1ccc(O)cc1)C(N)=O)[C@@H](C)O)C(C)C` [Compound 29, N{alpha-4}-(3-methylbutanoyl)-N{epsilon-7}-[2-(2-{2-[2-(2-{2-[(4S)-4-carboxy-4-(17-carboxyheptadecanamido)butanamido]ethoxy}ethoxy)acetamido]ethoxy}ethoxy)acetamido]-[4A,7K,9E,10A,11P,18Q,22V,23E,28Y,30W,31L]hPYY (4-36)] (Isovaleryl-APEK([AEEA-AEEA-γGlu-C18 diacid])PEAPASPEELQRYYVELRHYYNWLTRQRY-NH2): the Ki in assay [1] (setting [3]) was found to be 3.8 nM; in assay [1] (pH7.1-7.2, assumed 10 mg/ml, read-out: RLB 7 (pH7.1-7.2)), 4.4 nM; in assay [1] (pH8.1-8.2, assumed 10 mg/ml, read-out: RLB 8 (pH8.1-8.2)), 2.3 nM; in assay [2] (setting [4]) it was 0.29 nM; in assay [2] (setting [5]) it was 4.6 nM.
For `CC[C@H](C)[C@H](NC(=O)[C@H](CCC(=O)O)NC(=O)[C@H](CCC(=O)O)NC(=O)[C@@H]1CCCN1C(=O)[C@H](CO)NC(=O)[C@H](C)NC(=O)[C@H](CC(=O)O)NC(=O)[C@H](CCC(=O)O)NC(=O)[C@H](CCC(=O)O)NC(=O)[C@@H]1CCCN1C(=O)[C@H](CCCCNC(=O)COCCOCCNC(=O)COCCOCCNC(=O)CC[C@H](NC(=O)CCCCCCCCCCCCCCCCC(=O)O)C(=O)O)NC(=O)[C@H](CCC(=O)O)NC(=O)[C@@H]1CCCN1C(=O)[C@H](C)NC(=O)CC(C)C)C(=O)N[C@@H](CCC(N)=O)C(=O)N[C@@H](CCCNC(=N)N)C(=O)N[C@@H](Cc1ccc(O)cc1)C(=O)N[C@@H](Cc1ccc(O)cc1)C(=O)N[C@H](C(=O)N[C@@H](CO)C(=O)N[C@@H](CC(C)C)C(=O)N[C@@H](CCCNC(=N)N)C(=O)N[C@@H](Cc1c[nH]cn1)C(=O)N[C@@H](Cc1ccc(O)cc1)C(=O)N[C@@H](Cc1ccc(O)cc1)C(=O)N[C@@H](CC(N)=O)C(=O)N[C@@H](Cc1c[nH]c2ccccc12)C(=O)N[C@@H](CC(C)C)C(=O)N[C@H](C(=O)N[C@@H](CCCNC(=N)N)C(=O)N[C@@H](CCC(N)=O)C(=O)N[C@@H](CCCNC(=N)N)C(=O)N[C@@H](Cc1ccc(O)cc1)C(N)=O)[C@@H](C)O)C(C)C` [Compound 84, N{alpha-4}-(3-methylbutanoyl)-N{epsilon-7}-[2-(2-{2-[2-(2-{2-[(4S)-4-carboxy-4-(17-carboxyheptadecanamido)butanamido]ethoxy}ethoxy)acetamido]ethoxy}ethoxy)acetamido]-[4A,7K,9E,17I,18Q,22V,28Y,30W,31L]hPYY (4-36)], the Ki was determined as 6.6 nM in assay [1] (setting [3]), 1.19 nM in assay [2] (setting [4]) and 3.5 nM in assay [2] (setting [5]).
Regarding `CC[C@H](C)[C@H](NC(=O)[C@H](CCC(=O)O)NC(=O)[C@H](CCC(=O)O)NC(=O)[C@@H]1CCCN1C(=O)[C@H](CO)NC(=O)[C@H](C)NC(=O)[C@H](CCC(=O)O)NC(=O)[C@H](CCC(=O)O)NC(=O)[C@H](CCC(=O)O)NC(=O)[C@@H]1CCCN1C(=O)[C@H](CCCCNC(=O)COCCOCCNC(=O)COCCOCCNC(=O)CC[C@H](NC(=O)CCCCCCCCCCCCCCCCC(=O)O)C(=O)O)NC(=O)[C@H](CCC(=O)O)NC(=O)[C@@H]1CCCN1C(=O)[C@H](C)NC(=O)CC(C)C)C(=O)N[C@@H](CCC(N)=O)C(=O)N[C@@H](CCCNC(=N)N)C(=O)N[C@@H](Cc1ccc(O)cc1)C(=O)N[C@@H](Cc1ccc(O)cc1)C(=O)N[C@H](C(=O)N[C@@H](CO)C(=O)N[C@@H](CC(C)C)C(=O)N[C@@H](CCCNC(=N)N)C(=O)N[C@@H](Cc1c[nH]cn1)C(=O)N[C@@H](Cc1ccc(O)cc1)C(=O)N[C@@H](Cc1ccc(O)cc1)C(=O)N[C@@H](CC(N)=O)C(=O)N[C@@H](Cc1c[nH]c2ccccc12)C(=O)N[C@@H](CC(C)C)C(=O)N[C@H](C(=O)N[C@@H](CCCNC(=N)N)C(=O)N[C@@H](CCC(N)=O)C(=O)N[C@@H](CCCNC(=N)N)C(=O)N[C@@H](Cc1ccc(O)cc1)C(N)=O)[C@@H](C)O)C(C)C` [Compound 241, N{alpha-4}-(3-methylbutanoyl)-N{epsilon-7}-[2-(2-{2-[2-(2-{2-[(4S)-4-carboxy-4-(17-carboxyheptadecanamido)butanamido]ethoxy}ethoxy)acetamido]ethoxy}ethoxy)acetamido]-[4A,7K,9E,11E,17I,18Q,22V,28Y,30W,31L]hPYY (4-36)], the “Acute Food Intake 24 h [% vehicle]” value in the assay on normal NMRI mice was determined as 45 % vehicle. For the same compound, in assay [2] (setting [4]), the Ki came to 2.95 nM.
On the same counts, the results for `CC(C)CC(=O)N[C@@H](C)C(=O)N1CCC[C@H]1C(=O)N[C@@H](CCC(=O)O)C(=O)N[C@@H](CCCCNC(=O)COCCOCCNC(=O)COCCOCCNC(=O)CC[C@H](NC(=O)CCCCCCCCCCCCCCCCC(=O)O)C(=O)O)C(=O)N1CCC[C@H]1C(=O)N[C@@H](CCC(=O)O)C(=O)N[C@@H](CCC(=O)O)C(=O)N[C@@H](CC(=O)O)C(=O)N[C@@H](C)C(=O)N[C@@H](CCC(=O)O)C(=O)N1CCC[C@H]1C(=O)N[C@@H](C)C(=O)N[C@@H](CCC(=O)O)C(=O)N[C@@H](CC(C)C)C(=O)N[C@@H](CCC(N)=O)C(=O)N[C@@H](CCCNC(=N)N)C(=O)N[C@@H](Cc1ccc(O)cc1)C(=O)N[C@@H](Cc1ccc(O)cc1)C(=O)N[C@H](C(=O)N[C@@H](CO)C(=O)N[C@@H](CC(C)C)C(=O)N[C@@H](CCCNC(=N)N)C(=O)N[C@@H](Cc1c[nH]cn1)C(=O)N[C@@H](Cc1ccc(O)cc1)C(=O)N[C@@H](Cc1ccc(O)cc1)C(=O)N[C@@H](CC(N)=O)C(=O)N[C@@H](Cc1c[nH]c2ccccc12)C(=O)N[C@@H](CC(C)C)C(=O)N[C@H](C(=O)N[C@@H](CCCNC(=N)N)C(=O)N[C@@H](CCC(N)=O)C(=O)N[C@@H](CCCNC(=N)N)C(=O)N[C@@H](Cc1ccc(O)cc1)C(N)=O)[C@@H](C)O)C(C)C` [Compound 244, N{alpha-4}-(3-methylbutanoyl)-N{epsilon-7}-[2-(2-{2-[2-(2-{2-[(4S)-4-carboxy-4-(17-carboxyheptadecanamido)butanamido]ethoxy}ethoxy)acetamido]ethoxy}ethoxy)acetamido]-[4A,7K,9E,13E,15A,18Q,22V,28Y,30W,31L]hPYY (4-36)] are 49 % vehicle and 1.84 nM.
